Experimental data taken from patent US10894782B2, “Modulators of P97 AAA ATPase activity” (University of Pittsburgh—Of the Commonwealth System of …, priority 2016, dated 2021).
Read-outs that look alike come from different tables or passages of the source.

Molecular target: P97 (Homo sapiens (Human), UniProt P55072)
Assay: P97 Biomolgreen ATPase assay, 200 μM ATP
Assay type: biochemical
[1] = read-out: P97 Biomolgreen, IC50

Sequence of P97 (P55072 whole entry): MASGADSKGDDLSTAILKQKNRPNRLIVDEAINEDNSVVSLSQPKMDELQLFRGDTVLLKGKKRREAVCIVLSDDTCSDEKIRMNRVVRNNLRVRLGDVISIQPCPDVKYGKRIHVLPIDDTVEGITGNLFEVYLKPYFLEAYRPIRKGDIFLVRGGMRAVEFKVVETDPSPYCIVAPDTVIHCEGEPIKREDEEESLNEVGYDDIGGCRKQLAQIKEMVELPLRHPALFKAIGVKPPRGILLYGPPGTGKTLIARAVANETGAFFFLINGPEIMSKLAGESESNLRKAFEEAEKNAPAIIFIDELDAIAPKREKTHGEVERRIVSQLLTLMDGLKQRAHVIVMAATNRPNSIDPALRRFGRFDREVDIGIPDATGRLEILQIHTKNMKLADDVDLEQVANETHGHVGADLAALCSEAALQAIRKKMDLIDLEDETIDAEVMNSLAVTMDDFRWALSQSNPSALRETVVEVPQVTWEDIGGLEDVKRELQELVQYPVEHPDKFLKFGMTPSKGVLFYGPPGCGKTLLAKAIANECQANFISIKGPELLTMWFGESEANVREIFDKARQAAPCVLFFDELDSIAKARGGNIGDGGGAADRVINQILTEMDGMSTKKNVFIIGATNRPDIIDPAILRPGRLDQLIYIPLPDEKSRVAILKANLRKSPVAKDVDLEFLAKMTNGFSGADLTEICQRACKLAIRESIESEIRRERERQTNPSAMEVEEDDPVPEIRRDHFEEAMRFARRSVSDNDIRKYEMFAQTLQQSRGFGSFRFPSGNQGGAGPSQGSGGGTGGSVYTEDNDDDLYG

| SMILES | IC50 (P97 Biomolgreen, IC50 (μM)) [µM] | IC50 [1] [µM] |
| --- | --- | --- |
| [2H]C1([2H])C([2H])([2H])C([2H])([2H])C([2H])(Sc2nnc(COc3ccc(C#CC(C)OC(=O)NC(C)C)c(C)c3)n2-c2cccnc2)C1([2H])[2H] (centres unmarked) [Compound 1] | 0.16 | – |
| C#Cc1ccc(OCc2nnc(SC3CCCC3)n2-c2cccnc2)cc1C [Compound 2] | – | 0.049 |
| [2H]C1([2H])C([2H])([2H])C([2H])([2H])C([2H])(Sc2nnc(COc3ccc(C#CC(C)N4CCOCC4)c(C)c3)n2-c2cccnc2)C1([2H])[2H] (centres unmarked) [Compound 3] | 0.17 | – |
| Cc1cc(OCc2nnc(SC3C=CCCC3)n2-c2cccnc2)ccc1C#CCN (centres unmarked) [Compound 4] | – | 0.044 |
| Cc1cc(OCc2nnc(SC3CCCC3)n2-c2cccnc2)ccc1C#CC#N [Compound 5] | – | 0.021 |
| [2H]C1([2H])C([2H])([2H])C([2H])([2H])C([2H])(Sc2nnc(COc3ccc(C#CCOC(=O)N4CCOCC4)c(C)c3)n2-c2cccnc2)C1([2H])[2H] [Compound 6] | 0.044 | – |
| Cc1ccc(S(=O)(=O)NCC#Cc2ccc(OCc3nnc(SC4C=CCCC4)n3-c3cccnc3)cc2C)cc1 (centres unmarked) [Compound 7] | – | 0.13 |
| Cc1cc(OCc2nnc(SC3CCCC3)n2-c2cccnc2)ccc1C#CCN1CCOCC1 [Compound 8] | – | 0.039 |
| Cc1cc(OCc2nnc(SC3CCCC3)n2-c2cccnc2)ccc1C#CCCc1ccccc1 [Compound 9] | – | 0.1 |
| Cc1cc(OCc2nnc(SC3CCCC3)n2-c2cccnc2)ccc1C#CCNC(=O)C(C)(C)C [Compound 10] | – | 0.092 |
| Cc1cc(OCc2nnc(SC3CCCC3)n2-c2cccnc2)ccc1C#CCNC(C)C [Compound 11] | – | 0.007 |
| COC(=O)NCC#Cc1ccc(OCc2nnc(SC3CCCC3)n2-c2cccnc2)cc1C [Compound 12] | – | 0.029 |
| Cc1cc(OCc2nnc(SC3CCCC3)n2-c2cccnc2)ccc1C#CCNS(C)(=O)=O [Compound 13] | – | 0.05 |
| Cc1cc(OCc2nnc(SC3C=CCCC3)n2-c2cccnc2)ccc1C#CCNS(C)(=O)=O (centres unmarked) [Compound 14] | – | 0.035 |
| Cc1cc(OCc2nnc(SC3C=CCCC3)n2-c2cccnc2)ccc1C#CCNS(=O)(=O)c1ccc(F)cc1 (centres unmarked) [Compound 15] | – | 0.074 |
| Cc1cc(OCc2nnc(SC3C=CCCC3)n2-c2cccnc2)ccc1C#CCNC(C)C (centres unmarked) [Compound 16] | – | 0.055 |
| Cc1cc(OCc2nnc(SC3C=CCCC3)n2-c2cccnc2)ccc1C#CCNC1CCCCC1 (centres unmarked) [Compound 17] | – | 0.04 |
| Cc1cc(OCc2nnc(SC3C=CCCC3)n2-c2cccnc2)ccc1C#CCNS(=O)(=O)C1CC1 (centres unmarked) [Compound 18] | – | 0.035 |
| Cc1cc(OCc2nnc(SC3C=CCCC3)n2-c2cccnc2)ccc1C#CCNC1CCN(C)CC1 (centres unmarked) [Compound 19] | – | 0.036 |

| SMILES | IC50 (P97 Biomolgreen, IC50 (μM)) [µM] | IC50 [1] [µM] |
| --- | --- | --- |
| [2H]C1([2H])C([2H])([2H])C([2H])([2H])C([2H])(Sc2nnc(COc3ccc(C#CCOC(=O)NCC(F)(F)F)c(C)c3)n2-c2cccnc2)C1([2H])[2H] [Compound 20] | 0.034 | – |
| [2H]C1([2H])C([2H])([2H])C([2H])([2H])C([2H])(Sc2nnc(COc3ccc(C#CCOC(=O)NCCN4CCN(C(C)C)CC4)c(C)c3)n2-c2cccnc2)C1([2H])[2H] [Compound 21] | 0.034 | – |
| Cc1cc(OCc2nnc(SC3CCCC3)n2-c2cccnc2)ccc1C#CCOC(=O)NC(C)C [Compound 22] | – | 0.027 |
| [2H]C1([2H])C([2H])([2H])C([2H])([2H])C([2H])(Sc2nnc(COc3ccc(C#CCOC(=O)NC(C)C)c(C)c3)n2-c2cccnc2)C1([2H])[2H] [Compound 23] | 0.032 | – |
| [2H]C1([2H])C([2H])([2H])C([2H])([2H])C([2H])(Sc2nnc(COc3ccc(C#CCOC(=O)NC)c(C)c3)n2-c2cccnc2)C1([2H])[2H] [Compound 24] | 0.026 | – |
| Cc1cc(OCc2nnc(SC3C=CCCC3)n2-c2cccnc2)ccc1C#CCN(C)S(C)(=O)=O (centres unmarked) [Compound 25] | – | 0.066 |
| [2H]C1([2H])C([2H])([2H])C([2H])([2H])C([2H])(Sc2nnc(COc3ccc(C#CC(C)O)c(C)c3)n2-c2cccnc2)C1([2H])[2H] (centres unmarked) [Compound 26] | 0.068 | – |
| [2H]C1([2H])C([2H])([2H])C([2H])([2H])C([2H])(Sc2nnc(COc3ccc(C#CC(C)OC)c(C)c3)n2-c2cccnc2)C1([2H])[2H] (centres unmarked) [Compound 27] | 0.16 | – |
| Cc1cc(OCc2nnc(SC3C=CCCC3)n2-c2cccnc2)ccc1C#CC(C)(C)O (centres unmarked) [Compound 28] | – | 0.096 |
| Cc1cc(OCc2nnc(SC3C=CCCC3)n2-c2cccnc2)ccc1C#CCOC(=O)NCCN1CCN(C(C)C)CC1 (centres unmarked) [Compound 29] | – | 0.019 |
| Cc1cc(OCc2nnc(SC3C=CCCC3)n2-c2cccnc2)ccc1C#CCOC(=O)NCC1(N2CCN(C(C)C)CC2)CCC1 (centres unmarked) [Compound 30] | – | 0.011 |
| [2H]C1([2H])C([2H])([2H])C([2H])([2H])C([2H])(Sc2nnc(COc3ccc(C#CCOC(=O)NCCc4ncnn4C)c(C)c3)n2-c2cccnc2)C1([2H])[2H] [Compound 31] | 0.052 | – |
| [2H]C1([2H])C([2H])([2H])C([2H])([2H])C([2H])(Sc2nnc(COc3ccc(C#CCOC(=O)NCCN4CCCN(C(C)C)CC4)c(C)c3)n2-c2cccnc2)C1([2H])[2H] [Compound 32] | 0.023 | – |
| Cc1cc(OCc2nnc(SC3C=CCCC3)n2-c2cccnc2)ccc1C#CCNS(=O)(=O)N(C)C (centres unmarked) [Compound 33] | – | 0.043 |
| Cc1cc(OCc2nnc(SC3C=CCCC3)n2-c2cccnc2)ccc1C#CC1(O)COC1 (centres unmarked) [Compound 34] | – | 0.098 |
| [2H]C1([2H])C([2H])([2H])C([2H])([2H])C([2H])(Sc2nnc(COc3ccc(C#CCOC(=O)NCc4cc(C)on4)c(C)c3)n2-c2cccnc2)C1([2H])[2H] [Compound 35] | 0.064 | – |
| [2H]C1([2H])C([2H])([2H])C([2H])([2H])C([2H])(Sc2nnc(COc3ccc(C#CCOC)c(C)c3)n2-c2cccnc2)C1([2H])[2H] [Compound 36] | 0.069 | – |
| [2H]C1([2H])C([2H])([2H])C([2H])([2H])C([2H])(Sc2nnc(COc3ccc(C#CCOC(=O)N4CCC4)c(C)c3)n2-c2cccnc2)C1([2H])[2H] [Compound 37] | 0.07 | – |
| [2H]C1([2H])C([2H])([2H])C([2H])([2H])C([2H])(Sc2nnc(COc3ccc(C#CCNC4CCN(C(C)C)CC4)c(C)c3)n2-c2cccnc2)C1([2H])[2H] [Compound 38] | 0.095 | – |

Now from value to molecule:

| IC50 (P97 Biomolgreen, IC50 (μM)) [µM] | IC50 [1] [µM] | SMILES |
| --- | --- | --- |
| – | 0.11 | Cc1cc(OCc2nnc(SC3C=CCCC3)n2-c2cccnc2)ccc1C#CCNCc1ccc(F)cc1 (centres unmarked) [Compound 39] |
| – | 0.14 | Cc1cc(OCc2nnc(SC3C=CCCC3)n2-c2cccnc2)ccc1C#CCNC(=O)OC(C)(C)C (centres unmarked) [Compound 40] |
| 0.16 | – | [2H]C1([2H])C([2H])([2H])C([2H])([2H])C([2H])(Sc2nnc(COc3ccc(C#CCN4CCS(=O)(=O)CC4)c(C)c3)n2-c2cccnc2)C1([2H])[2H] [Compound 41] |
| – | 0.048 | Cc1cc(OCc2nnc(SC3CCCC3)n2-c2cccnc2)ccc1C#CCNC(=O)OC(C)(C)C [Compound 43] |
| – | 0.18 | Cc1cc(OCc2nnc(SC3CCCC3)n2-c2cccnc2)ccc1C#CCN1CCS(=O)(=O)CC1 [Compound 44] |
| – | 0.64 | Cc1cc(OCc2nnc(SC3C=CCCC3)n2-c2cccnc2)ccc1C#CC(C)(C)NC(=O)OC(C)(C)C (centres unmarked) [Compound 45] |
| 0.19 | – | [2H]C1([2H])C([2H])([2H])C([2H])([2H])C([2H])(Sc2nnc(COc3ccc(C#CCNC(=O)OC(C)(C)C)c(C)c3)n2-c2cccnc2)C1([2H])[2H] [Compound 46] |
| – | 0.29 | Cc1cc(OCc2nnc(SC3C=CCCC3)n2-c2cccnc2)ccc1C#CCN1C(=O)c2ccccc2C1=O (centres unmarked) [Compound 47] |
| – | 0.67 | C#Cc1ccc(OCc2nnc(SC3CC3)n2-c2cccnc2)cc1C [Compound 48] |
| – | 0.28 | Cc1cc(OCc2nnc(SC3CCCC3)n2-c2cccnc2)ccc1C#CCN1C(=O)c2ccccc2C1=O [Compound 50] |
| – | 0.44 | C#Cc1ccc(OCc2nnc(CC3CCCC3)n2-c2cccnc2)cc1C [Compound 51] |
| 0.55 | – | [2H]C1([2H])C([2H])([2H])C([2H])([2H])C([2H])(Sc2nnc(COc3ccc(C#CC(O)c4ccccc4)c(C)c3)n2-c2cccnc2)C1([2H])[2H] (centres unmarked) [Compound 52] |
| – | 1.1 | Cc1cc(OCc2nnc(SC3C=CCCC3)n2-c2cccnc2)ccc1C#CC1(NC(=O)OC(C)(C)C)CCCCC1 (centres unmarked) [Compound 53] |
| – | 2 | Cc1cc(OCc2nnc(SC3CC3)n2-c2cccnc2)ccc1C#CCNC(=O)OC(C)(C)C [Compound 54] |
| – | > 6.7 | N#Cc1ccc(C#CCOCc2nnc(SC3CCCC3)n2-c2cccnc2)cc1 [Compound 56] |
| – | 0.093 | Cc1cc(OCc2nnc(SC3CCCC3)n2-c2cccnc2)ccc1C#CCO [Compound 58] |
| – | 0.025 | Cc1cc(OCc2nnc(SC3C=CCCC3)n2-c2cccnc2)ccc1C#CCOC(=O)NCCN1CCN(C)CC1 (centres unmarked) [Compound 59] |
| – | 0.019 | Cc1cc(OCc2nnc(SC3C=CCCC3)n2-c2cccnc2)ccc1C#CCOC(=O)NCCN1CCN(C(C)C)CC1 (centres unmarked) [Compound 60] |
| – | 0.029 | Cc1cc(OCc2nnc(SC3C=CCCC3)n2-c2cccnc2)ccc1C#CCOC(=O)NCCC(=O)N1CCN(C)CC1 (centres unmarked) [Compound 61] |
| – | 0.11 | Cc1cc(OCc2nnc(SC3C=CCCC3)n2-c2cccnc2)ccc1C#CC(OC(=O)NCCN1CCN(C(C)C)CC1)C(F)(F)F (centres unmarked) [Compound 62] |
| – | 0.048 | Cc1cc(OCc2nnc(SC3C=CCCC3)n2-c2cccnc2)ccc1C#CCNS(=O)(=O)N1CCOCC1 (centres unmarked) [Compound 63] |
| – | 0.06 | Cc1cc(OCc2nnc(SC3C=CCCC3)n2-c2cccnc2)ccc1C#CCNS(=O)(=O)N1CCCC1 (centres unmarked) [Compound 64] |
| – | 0.047 | Cc1cc(OCc2nnc(SC3C=CCCC3)n2-c2cccnc2)ccc1C#CCNS(=O)(=O)N1CCN(C)CC1 (centres unmarked) [Compound 65] |
| – | 0.12 | Cc1cc(OCc2nnc(CC3CCCC3)n2-c2cccnc2)ccc1C#CCOC(=O)NCCN1CCN(C(C)C)CC1 [Compound 66] |
| 0.2 | – | [2H]C1([2H])C([2H])([2H])C([2H])([2H])C([2H])(Sc2nnc(COc3ccc(C#CCNCC4(N5CCN(C(C)C)CC5)CCC4)c(C)c3)n2-c2cccnc2)C1([2H])[2H] [Compound 67] |
| 0.17 | – | [2H]C1([2H])C([2H])([2H])C([2H])([2H])C([2H])(Sc2nnc(COc3ccc(C#CCNCCN4CCN(C)CC4)c(C)c3)n2-c2cccnc2)C1([2H])[2H] [Compound 68] |
| – | 0.066 | Cc1cc(OCc2nnc(CC3CCCC3)n2-c2cccnc2)ccc1C#CCOC(=O)NCCN1CCN(C)CC1 [Compound 69] |
